Source: patent US20050048508A1, “Trehalose receptor and method for detecting trehalose with the same” (KABUSHIKI KAISHA HAYASHIBARA SEIBUTSU KAGAKU KENKYUJO, priority 2002, published 2005)

Assays:
[1] = molecular target: T1, T1R3 with G protein α-subunits (α15 and α16/Z chimeric protein) (Mus musculus, UniProt Q925D8, I706N); test: Intracellular calcium ion assay, 293 cells coexpressing G protein α-subunits and T1R3 (trehalose receptor); type: cell-based
T1 construct: expressed in transfected cells; host or cells: 293 cells, RCB 1637 (human embryonic kidney)
T1 sequence (Q925D8 21-858 I706N): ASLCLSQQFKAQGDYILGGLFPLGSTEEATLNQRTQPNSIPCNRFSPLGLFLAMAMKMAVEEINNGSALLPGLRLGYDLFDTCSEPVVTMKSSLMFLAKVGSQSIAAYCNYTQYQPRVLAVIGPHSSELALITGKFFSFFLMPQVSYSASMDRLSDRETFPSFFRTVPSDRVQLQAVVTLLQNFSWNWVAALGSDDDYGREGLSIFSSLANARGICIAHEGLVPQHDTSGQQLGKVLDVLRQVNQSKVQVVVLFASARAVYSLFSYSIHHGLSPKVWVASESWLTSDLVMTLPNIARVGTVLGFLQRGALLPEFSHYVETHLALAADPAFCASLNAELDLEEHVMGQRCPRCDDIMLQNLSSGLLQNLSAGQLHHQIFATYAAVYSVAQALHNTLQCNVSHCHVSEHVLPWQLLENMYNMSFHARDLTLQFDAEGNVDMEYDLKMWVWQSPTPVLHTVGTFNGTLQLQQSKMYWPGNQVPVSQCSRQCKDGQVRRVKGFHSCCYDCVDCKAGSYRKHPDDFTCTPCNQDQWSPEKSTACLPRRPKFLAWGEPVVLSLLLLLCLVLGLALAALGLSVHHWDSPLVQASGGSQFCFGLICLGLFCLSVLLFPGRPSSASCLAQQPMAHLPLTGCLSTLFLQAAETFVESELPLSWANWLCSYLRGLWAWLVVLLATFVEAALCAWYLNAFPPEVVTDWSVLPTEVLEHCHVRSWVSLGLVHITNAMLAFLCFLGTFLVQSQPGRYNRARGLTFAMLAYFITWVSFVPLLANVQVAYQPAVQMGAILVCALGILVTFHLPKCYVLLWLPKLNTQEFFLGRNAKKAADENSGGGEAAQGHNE
Protocol: The coexpression vector for the G protein α-subunit α15 and the G protein α16/Z chimeric protein (hereinafter designated as “G protein α-subunits”) obtained in Example 1-3 was gene transferred to 293 cells, RCB 1637, a human embryonic kidney cell line, available from the Riken Bioresource Center, Ibaraki, Japan, by conventional lipofection. The gene transferred cells were suspended in Dulbecco's Modified Eagle's Medium (D-MEM) supplemented with 1 mg/L of “PUROMYCIN”, a trade mane of puromycin commercialized by Edge Biosystems, MD, USA, and 10% (v/v) of fetal calf serum to give a cell density of 2×10^6 cells/ml and cultured in a plastic petri dish for cell culture. After 10 to 14 days of incubation, a puromycin-resistant cell colony was collected and confirmed its production of the G protein α-subunit proteins with an index of their mRNA level by conventional RT-PCR. Thus, a cell line capable of expressing the G protein α-subunit proteins was established. To the cells were gene transferred an expression vector for the sweet taste receptor protein T1R1, T1R2, or T1R3 in Example 2-2; or a coexpression vector for a pair of T1R1 and T1R2, T1R1 and T1R3, or T1R2 and T1R3 by conventional lipofection. The resulting cells were suspended in D-MEM supplemented with 1 mg/L of “PUROMYCIN”, 500 mg/L of “GENETICIN”, and 10% (v/v) of fetal calf serum and cultured in a plastic petri dish for cell culture. After 10 to 14 days of incubation, a cell colony resistant to both of the above drugs was collected and confirmed that the transferred gene had been expressed intracellularly as expected by conventional RT-PCR at a mRNA level. Thus, a cell, which had coexpressed the desired G proteins and sweet taste receptors, was obtained. As a control, a cell, into which an expression vector with no G protein α-subunit protein gene or sweet taste receptor protein gene, was prepared and used.
The captioned reactivity test was conducted according to a conventional intracellular calcium ion assay: 293 Cells prepared in Example 3, capable of coexpressing the G protein α-subunits and the sweet taste receptor(s), were cultured in a plastic petri dish for cell culture until reaching its confluent phase. Thereafter, the cells were detached from the inner surface of the petri dish with a 0.05% (v/v) trypsin solution and a 0.53 mM EDTA solution, suspended in D-MEM supplemented with 10% (v/v) fetal calf serum to give a cell density of 1×10^6 cells/ml, and allowed to intake “FLUO-4. AM”, a reagent for detecting intracellular calcium ion commercialized by Molecular Probes Inc., Ore., USA, by adding to the cell suspension to give a final concentration of 2 μM and incubating the cells at 37 ° C. for 30 to 90 min. The resulting cells were washed with a buffer for detecting calcium ion, which contained 10 mM HEPES (pH 7.4), 130 mM sodium chloride, 5.4 mM potassium chloride, 2 mM calcium chloride, 1 mM magnesium chloride, 5.5 mM D-glucose, 0.1% (v/v) calf serum albumin, and 1 mM sodium pyruvate to remove the reagent remained extracellularly; suspended in a fresh preparation of the same buffer to give a cell density of 2.67 ×10^7 cells/ml; filtered with a membrane with a pore size of 100 μm mesh; and allowed to stand at 25° C. for 30 min. Two milliliters of the resultant cell suspension was injected into a glass cuvette, commercialized by Hitachi, Ltd., Tokyo, Japan, and analyzed on “HITACHI 650-40”, a fluorescence spectrophotometer commercialized by Hitachi, Ltd., Tokyo, Japan. […]

[2] = relative to sucrose; cited from earlier work
[3] = 293 cells: T1R3 + G protein α-subunits, 0.67 ml of 1 M saccharide solution added to 2 ml cell suspension, FLUO-4 AM
[4] = Table 4: sweet taste substances on cells coexpressing G protein α-subunits and T1R3, measured similarly as in Example 4

| Structure (SMILES) | Influx of calcium ion [1, 3] | Influx of calcium ion [1, 4] | Sweetening power [2] [%] | Influx of calcium ion ([1]; 293 cells: T1R3 + G protein α-subunits, 0.67 ml of 1 M saccharide solution added to 2 ml cell suspension, FLUO-4 AM, listed as trehalose) |
| --- | --- | --- | --- | --- |
| OC[C@H]1O[C@@](CO)(O[C@H]2O[C@H](CO)[C@@H](O)[C@H](O)[C@H]2O)[C@@H](O)[C@@H]1O [Sucrose, reference compound] | Negative | Negative |  |  |
| OC[C@H]1O[C@H](O[C@H]2O[C@H](CO)[C@@H](O)[C@H](O)[C@H]2O)[C@H](O)[C@@H](O)[C@@H]1O [Trehalose] | Positive | Positive | 45 | reacted |
